How the values were obtained:
[1] = target: T1, full-length RALGDS recombinant protein (Homo sapiens, UniProt Q12967); assay: analytical ultracentrifugation; assay type: binding
T1 construct: full length, purified recombinant, purchased from Genscript Biotech
T1 sequence (Q12967 1-914): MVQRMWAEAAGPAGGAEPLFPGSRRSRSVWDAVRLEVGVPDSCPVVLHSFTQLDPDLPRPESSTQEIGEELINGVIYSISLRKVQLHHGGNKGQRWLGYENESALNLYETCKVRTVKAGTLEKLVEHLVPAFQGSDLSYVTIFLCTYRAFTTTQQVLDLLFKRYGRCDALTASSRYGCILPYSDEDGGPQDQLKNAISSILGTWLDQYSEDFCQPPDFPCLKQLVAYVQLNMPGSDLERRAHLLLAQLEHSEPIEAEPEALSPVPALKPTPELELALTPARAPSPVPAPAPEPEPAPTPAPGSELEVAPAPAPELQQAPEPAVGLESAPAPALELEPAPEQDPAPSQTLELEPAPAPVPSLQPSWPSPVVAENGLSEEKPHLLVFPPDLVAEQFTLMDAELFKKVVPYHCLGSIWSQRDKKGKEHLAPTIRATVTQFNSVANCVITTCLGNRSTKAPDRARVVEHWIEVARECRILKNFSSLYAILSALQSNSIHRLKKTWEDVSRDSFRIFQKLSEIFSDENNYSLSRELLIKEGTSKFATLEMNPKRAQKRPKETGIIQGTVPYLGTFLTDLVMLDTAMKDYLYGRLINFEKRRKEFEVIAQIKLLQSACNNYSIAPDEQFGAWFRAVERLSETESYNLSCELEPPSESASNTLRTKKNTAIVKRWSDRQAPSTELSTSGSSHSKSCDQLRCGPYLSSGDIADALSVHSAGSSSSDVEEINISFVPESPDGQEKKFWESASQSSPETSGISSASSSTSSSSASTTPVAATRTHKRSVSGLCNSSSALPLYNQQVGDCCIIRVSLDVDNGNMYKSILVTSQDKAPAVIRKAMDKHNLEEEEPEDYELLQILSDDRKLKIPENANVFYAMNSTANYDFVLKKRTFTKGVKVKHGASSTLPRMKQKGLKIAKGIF

GFP-tagged RALGDS = target: T2, GFP-tagged RALGDS (Homo sapiens, UniProt Q12967); assay: co-immunoprecipitation of H-RAS12V from mixed HEK-293 lysates, Western blot; assay type: biochemical; settings: 20 μM (figure legend; 10 μM in methods), HA-H-RAS12V partner, pH 7.5, room temperature; inhibition of RAS/RALGEF complex
T2 construct: full length, GFP-tagged, plasmid gift of CJ Der, expressed in HEK-293, lysate

RGL3 = target: T3, RGL3 (Homo sapiens, UniProt Q3MIN7); assay: as above; assay type: biochemical; settings: 20 μM (figure legend; 10 μM in methods), HA-H-RAS12V partner, pH 7.5, room temperature; inhibition of RAS/RALGEF complex
T3 construct: Flag-tagged, construct purchased from Genscript, expressed in HEK-293, lysate

RGL2 (also known as Rlf) = target: T4, RGL2 (also known as Rlf) (Homo sapiens, UniProt O15211); assay: as above; assay type: biochemical; settings: 20 μM (figure legend; 10 μM in methods), HA-H-RAS12V partner, pH 7.5, room temperature; inhibition of RAS/RALGEF complex
T4 construct: full length, GFP-tagged, plasmid gift of CJ Der, expressed in HEK-293, lysate

[2] = target: T5, isolated RA domain of RALGDS; assay: microscale thermophoresis, one-site model; settings: 50 nM fluorescently labelled RALGDS RA domain, 5% DMSO; average of four experiments; compound solubility may have compromised the assay; read-out: binding affinity
T5 construct: isolated RAS association (RA) domain, C-terminal; fluorescently labelled
From the text: microscale thermophoresis, one-site model on isolated RA domain of RALGDS | obtained binding affinities in the low μM range

Row | SMILES | Kd [1] [nM] | co-immunoprecipitation of H-RAS12V from mixed HEK-293 lysates, Western blot (GFP-tagged RALGDS) | co-immunoprecipitation of H-RAS12V from mixed HEK-293 lysates, Western blot (RGL3) | co-immunoprecipitation of H-RAS12V from mixed HEK-293 lysates, Western blot (RGL2 (also known as Rlf)) | Kd [2] [nM]
1 | COc1cccc(CNc2nc(CNCc3cccc(F)c3)nc3sc(C)c(C)c23)c1 [C4-180] | ~1000 | C4-180 was noticably better at suppressing the interaction of RAS with RALGDS and RGL2 | C4-180 could act on RALGDS, RGL2 and RGL3 family members | C4-180 was noticably better at suppressing the interaction of RAS with RALGDS and RGL2 | 2550
2 | COc1cccc(CNc2nc(CN(C)Cc3cccc(OC)c3)nc3sc(C)c(C)c23)c1 [C4] |  | The complex formation was suppressed. |  | The complex formation was suppressed. | 
